Measured values reported in ChEMBL document CHEMBL1933028, “Discovery of cyclic amine-substituted benzoic acids as PPARα agonists” (Bioorg Med Chem Lett, 2012).

Experiments:
Canis familiaris [1] = assay: Toxicity in high-fat diet fed dog assessed as effect on food intake at 0.01 mg/kg, po administered QD for 1 week (reference value: 3.67+/-0.09 kg); type: organism-based, Canis lupus familiaris; parameters: dose 0.01 mg/kg, route oral; settings: in vivo, 168 h
[2] = Agonist activity at hamster PPARalpha; type: functional, Cricetinae
[3] = molecular target: T1, Peroxisome proliferator-activated receptor delta (Homo sapiens, UniProt Q03181); assay: Transactivation of human PPARdelta expressed in CHO-K1 cells; type: cell-based
T1 sequence (Q03181 whole entry): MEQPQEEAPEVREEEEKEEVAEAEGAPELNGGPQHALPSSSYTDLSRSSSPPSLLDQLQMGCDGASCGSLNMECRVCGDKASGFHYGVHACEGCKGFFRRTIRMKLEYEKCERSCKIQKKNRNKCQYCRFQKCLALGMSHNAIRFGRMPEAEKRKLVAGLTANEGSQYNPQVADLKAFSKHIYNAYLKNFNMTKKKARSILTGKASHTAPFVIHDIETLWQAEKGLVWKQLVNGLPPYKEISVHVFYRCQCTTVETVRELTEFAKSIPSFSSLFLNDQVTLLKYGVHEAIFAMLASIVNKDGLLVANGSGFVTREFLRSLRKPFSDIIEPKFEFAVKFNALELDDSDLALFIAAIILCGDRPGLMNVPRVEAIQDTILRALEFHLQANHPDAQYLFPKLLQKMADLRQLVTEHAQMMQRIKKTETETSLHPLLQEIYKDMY

[4] = molecular target: T2, Peroxisome proliferator-activated receptor gamma (Homo sapiens, UniProt P37231); assay: Transactivation of human PPARgamma expressed in CHO-K1 cells; type: cell-based
T2 sequence (P37231 whole entry): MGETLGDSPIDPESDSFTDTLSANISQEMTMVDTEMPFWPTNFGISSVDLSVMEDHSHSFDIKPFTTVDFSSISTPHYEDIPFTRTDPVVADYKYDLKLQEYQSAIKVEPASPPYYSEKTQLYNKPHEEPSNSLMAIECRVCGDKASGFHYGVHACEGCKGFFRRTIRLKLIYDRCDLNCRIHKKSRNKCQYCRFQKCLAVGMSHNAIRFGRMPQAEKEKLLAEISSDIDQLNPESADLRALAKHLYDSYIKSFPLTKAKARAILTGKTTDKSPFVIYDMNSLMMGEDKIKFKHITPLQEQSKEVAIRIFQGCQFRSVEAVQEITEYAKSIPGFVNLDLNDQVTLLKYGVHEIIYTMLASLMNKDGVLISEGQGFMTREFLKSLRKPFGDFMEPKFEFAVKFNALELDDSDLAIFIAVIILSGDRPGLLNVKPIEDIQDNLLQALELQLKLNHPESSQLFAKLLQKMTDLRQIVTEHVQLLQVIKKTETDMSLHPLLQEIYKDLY

[5] = molecular target: T3, Peroxisome proliferator-activated receptor alpha (Mus musculus, UniProt P23204); assay: Agonist activity at mouse PPARalpha; type: functional
T3 sequence (P23204 whole entry): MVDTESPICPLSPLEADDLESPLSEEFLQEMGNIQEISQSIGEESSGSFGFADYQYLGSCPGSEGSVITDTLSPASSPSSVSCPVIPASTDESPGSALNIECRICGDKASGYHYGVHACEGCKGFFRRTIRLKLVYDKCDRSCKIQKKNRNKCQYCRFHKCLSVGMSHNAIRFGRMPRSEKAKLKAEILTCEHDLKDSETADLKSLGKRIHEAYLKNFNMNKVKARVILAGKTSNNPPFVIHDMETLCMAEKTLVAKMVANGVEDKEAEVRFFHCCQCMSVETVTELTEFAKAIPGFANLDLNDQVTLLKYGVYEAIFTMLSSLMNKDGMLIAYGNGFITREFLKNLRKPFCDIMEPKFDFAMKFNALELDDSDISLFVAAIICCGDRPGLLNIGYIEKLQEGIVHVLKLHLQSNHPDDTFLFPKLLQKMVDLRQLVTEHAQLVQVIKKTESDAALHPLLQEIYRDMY

Canis familiaris [6] = assay: Antidyslipidemic activity in high-fat diet fed dog assessed as decrease in serum triglyceride level at 0.003 mg/kg, po administered QD for 1 week (reference value: 98 +/- 4 mg/dL); type: functional, Canis lupus familiaris
[7] = Half life in rat at 1 mg/kg, po; type: ADME, organism-based; parameters: dose 1 mg/kg, route oral; settings: in vivo

- EC50 [2]: 0.61 µM
- EC50 [3]: 3 µM
- EC50 [4]: 9.6 µM
- EC50 [5]: 4.7 µM
- half-life [7]: 10 h
SMILES: Cc1nc(-c2ccc(Cl)cc2)sc1C(=O)N[C@H]1CCCN(c2cccc(C(=O)O)c2)C1
- Activity (Canis familiaris [1]): 3.91 kg
- Activity (Canis familiaris [6]): 64 mg/dL
